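Method: 48-hour compound exposure of cells in 96-well plates, five concentrations, linear interpolation of endpoints. The concentration for 50% growth inhibition is given as GI50. TGI marks complete inhibition of growth.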
How the values were obtained:
Assay in all cases: NCI tumour cell line growth inhibition, 48 h
[1] = test system: MCF7 breast
[2] = test system: HT29 colon
[3] = test system: NCI-H23 lung
[4] = test system: MDA-MB-231 breast
[5] = test system: HCT-15 colon
[6] = test system: MOLT-4 leukemia
[7] = test system: LOX IMVI melanoma
[8] = test system: HCT-116 colon
[9] = test system: HS 578T breast
[10] = test system: NCI-H226 lung

SMILES	TGI [1]	TGI [2]	TGI [3]	TGI [4]	TGI [5]	TGI [6]	TGI [7]	TGI [8]	TGI [9]	TGI [10]	GI50 [4]	GI50 [5]	GI50 [8]	GI50 [9]	GI50 [2]	GI50 [6]
COc1ccc(N2CN(C)CSC2=S)cc1	> 100 µM	> 100 µM	> 100 µM	> 100 µM	> 100 µM	> 100 µM	> 100 µM	> 100 µM	> 100 µM	–	–	–	–	–	–	–
Cn1c(=O)c2c(nc3n2CCC(=O)N3CCCCl)n(C)c1=O	–	> 100 µM	> 100 µM	> 100 µM	> 100 µM	> 100 µM	> 100 µM	> 100 µM	> 100 µM	> 100 µM	–	–	–	–	–	–
N=S(=O)(c1ccccc1)c1ccccc1	–	–	> 100 µM	–	–	> 100 µM	> 100 µM	> 100 µM	–	> 100 µM	–	–	–	–	–	–
COc1cc(S(=O)(=O)Nc2ccc(-c3csc(N4C(=O)C(Cl)C4c4cccc(Oc5ccccc5)c4)n3)cc2)ccc1Cl (stereo unspecified)	> 100 µM	> 100 µM	36.9 µM	–	> 100 µM	> 100 µM	4.89 µM	> 100 µM	> 100 µM	39.8 µM	–	–	–	–	–	–
Clc1ccc2nc3n[nH]c(Cl)c3nc2c1	> 100 µM	> 100 µM	> 100 µM	> 100 µM	> 100 µM	> 100 µM	–	> 100 µM	63.6 µM	–	–	–	–	–	–	–
Brc1c2nc3ccccc3nc2n2ccc3ccccc3c12	–	–	> 100 µM	–	> 100 µM	> 100 µM	> 100 µM	> 100 µM	–	–	–	–	–	–	–	–
CCNC(=O)NNc1ncnc2c1c(-c1ccc(Cl)cc1)cn2-c1ccc(C)cc1	–	34 µM	44.8 µM	34.8 µM	47.8 µM	45.4 µM	36.4 µM	28.1 µM	–	37.9 µM	–	–	–	–	–	–
C[N+](C)=c1ccc2nc3c(ccc4ccccc43)oc-2c1	–	29.6 µM	27.2 µM	–	34.6 µM	20.4 µM	15.4 µM	20.3 µM	–	33.5 µM	–	–	–	–	–	–
N#CNC(=NCc1ccccc1)NCCc1c[nH]c2ccccc12	–	> 100 µM	> 100 µM	–	> 100 µM	> 100 µM	> 100 µM	> 100 µM	–	> 100 µM	–	–	–	–	–	–
Cc1c(-c2coc(-c3ccccc3)n2)c(=O)n(-c2ccccc2)n1C	–	> 100 µM	> 100 µM	–	> 100 µM	86.9 µM	> 100 µM	> 100 µM	–	> 100 µM	–	–	–	–	–	–
C/C=C/c1cc2c(c(=O)o1)C(=O)[C@@H](O)[C@H](C)O2	14.8 µM	44.6 µM	32.4 µM	–	25.9 µM	49.3 µM	26.4 µM	20.1 µM	–	38.5 µM	–	–	–	–	–	–
N/C(=N\NC(=O)c1nc2ccccc2s1)c1ccccn1	> 63.7 µM	50.7 µM	52.6 µM	> 100 µM	31.9 µM	18.7 µM	> 100 µM	19.6 µM	> 100 µM	–	–	–	–	–	–	–
C=C1C2C[C@@H]3OC4CC5O[C@]6(CC5OC4C(C)C3OC(=O)CC3CC[C@@H]4OC5C7OC8C[C@](CCC9CC(=C)[C@H](CCC(C[C@H]1C)O2)O9)(OC7C4O3)O[C@@H]85)C[C@@H]1O[C@@]2(CC(C)[C@@H]3OC(CC(=O)CCO)C(O)C[C@@H]3O2)CC(C)[C@@H]1O6 (stereo partly specified)	–	–	< 0.001 µM	–	0.00109 µM	2.19 µM	0.119 µM	0.00111 µM	–	< 0.001 µM	–	–	–	–	–	–
COCCOC(C)C(=O)C(O)S(=O)(=O)O (stereo unspecified)	> 100 µM	> 100 µM	> 100 µM	> 100 µM	> 100 µM	> 100 µM	–	> 100 µM	> 100 µM	> 100 µM	–	–	–	–	–	–
O=C(NC12CC3CC(CC(C3)C1)C2)C(=O)c1c[nH]c2ccc(Br)cc12	–	14.4 µM	> 100 µM	–	> 100 µM	44.2 µM	18.4 µM	45.7 µM	–	41.8 µM	–	–	–	–	–	–
CCCCOc1c(C(=O)O)cc(Br)cc1C(=O)O	> 100 µM	–	> 100 µM	> 100 µM	> 100 µM	> 100 µM	> 100 µM	> 100 µM	–	> 100 µM	–	–	–	–	–	–
CC1(C)Oc2ccc3c(=O)cc(-c4cccs4)oc3c2C1C(=O)O (stereo unspecified)	> 100 µM	> 100 µM	> 100 µM	> 100 µM	–	> 100 µM	–	> 100 µM	> 100 µM	> 100 µM	–	–	–	–	–	–
O=C(O)CN1CCCC(Cc2c[nH]c3ccccc23)C1 (stereo unspecified)	–	–	> 100 µM	> 100 µM	> 100 µM	–	> 100 µM	–	> 100 µM	> 100 µM	–	–	–	–	–	–
CO[C@H]1CC[C@]2(C)C3=CC[C@@]4(C)C(CC[C@@H]4C(C)CC[C@@H](C)C(C)C)C(=CCC2C1)O3 (stereo partly specified)	–	> 25 µM	> 7.9 µM	–	> 25 µM	> 25 µM	> 25 µM	> 25 µM	–	> 25 µM	–	–	–	–	–	–

SMILES	TGI [1]	TGI [2]	TGI [3]	TGI [4]	TGI [5]	TGI [6]	TGI [7]	TGI [8]	TGI [9]	TGI [10]	GI50 [4]	GI50 [5]	GI50 [8]	GI50 [9]	GI50 [2]	GI50 [6]
O=C(N/N=C\c1cccs1)c1ccncc1	> 100 µM	> 100 µM	> 100 µM	> 100 µM	> 100 µM	> 100 µM	–	> 100 µM	> 100 µM	> 100 µM	–	–	–	–	–	–
Cc1c(OCCCOc2ccc3c(=O)cc(-c4ccccc4)oc3c2C)ccc2c(=O)cc(-c3ccccc3)oc12	–	> 100 µM	> 100 µM	–	> 100 µM	> 100 µM	> 100 µM	> 100 µM	–	–	–	–	–	–	–	–
N#C/C=c1/c2ccccc2n2nc3ccccc3c12	> 100 µM	> 100 µM	59.2 µM	16.6 µM	> 100 µM	–	> 100 µM	12.1 µM	> 100 µM	–	–	–	–	–	–	–
C[N+](C)(C)CCOC(=O)/C=C/c1cnc[nH]1	> 500 µM	> 500 µM	> 500 µM	–	> 500 µM	> 316 µM	> 500 µM	> 500 µM	–	> 500 µM	–	–	–	–	–	–
COC1=CC(=O)C2C(C1=O)[C@@H]1c3ccccc3OC(C)(C)[C@H]21 (stereo partly specified)	–	99.4 µM	36.9 µM	–	36.2 µM	41.2 µM	27.2 µM	29.7 µM	–	54.7 µM	–	–	–	–	–	–
CCn1c(-c2ccc(OC)cc2)nc2c1C(=O)c1ccccc1C2=O	> 100 µM	> 100 µM	> 100 µM	> 100 µM	> 100 µM	> 100 µM	–	> 100 µM	> 100 µM	> 100 µM	–	–	–	–	–	–
Cn1cc(-c2nc(-c3c[nH]c4ccncc34)cs2)c2ccccc21	–	–	–	3.04 µM	2.81 µM	–	–	3.04 µM	4.4 µM	–	1.56 µM	1.37 µM	1.61 µM	1.93 µM	–	–
COc1cccc2c1C(=O)c1c(O)c3c(c(O)c1C2=O)C[C@@](O)(C(=O)CN1CCOCC1)C[C@@H]3OC1CC(N)C(O)C(C)O1 (stereo partly specified)	> 100 µM	–	20.9 µM	–	77.6 µM	1.15 µM	45.3 µM	> 100 µM	–	8.78 µM	–	–	–	–	3.87 µM	0.234 µM
Nc1ncnc2c1sc(=S)n2-c1ccccc1	–	> 100 µM	> 100 µM	–	> 100 µM	> 100 µM	> 100 µM	> 100 µM	–	> 100 µM	–	–	–	–	–	–
COc1cc(N)c2[nH]c3c(C)ccc(C)c3c2c1	–	> 100 µM	–	–	> 100 µM	> 100 µM	> 100 µM	> 100 µM	–	> 100 µM	–	–	–	–	–	–
Cc1ccc2n(c1)cc(-c1ccc(/C=N/NC(=N)N/N=C/c3ccc(-c4cn5cc(C)ccc5[n+]4C)cc3)cc1)[n+]2C	> 100 µM	> 100 µM	–	> 100 µM	> 100 µM	> 100 µM	–	> 100 µM	> 100 µM	–	–	–	–	–	–	–
NC(=O)COc1c(Br)cc(Br)cc1Br	–	> 100 µM	> 100 µM	–	> 100 µM	> 100 µM	–	> 100 µM	–	> 100 µM	–	–	–	–	–	–
COC(=O)CCCC1(CCCC(=O)OC)CCCCCCCCC(CCCC(=O)OC)(CCCC(=O)OC)C(=O)C1=O	> 100 µM	> 100 µM	47.9 µM	–	> 100 µM	–	48.5 µM	> 100 µM	> 100 µM	> 100 µM	–	–	–	–	–	–
CCCc1n[nH]c(=O)n1N1C(=O)C=CC1=O	> 100 µM	–	> 100 µM	> 100 µM	> 100 µM	> 100 µM	–	> 100 µM	–	–	–	–	–	–	–	–
c1ccc2[nH]c3c(N=NC4=NCCN4)c4ccccc4c-3nc2c1	11.4 µM	2.7 µM	23.3 µM	32.4 µM	15.8 µM	> 100 µM	–	13.4 µM	> 100 µM	23.7 µM	–	–	–	–	–	–
C[C@@H](NC(=O)[C@@H]1C[C@]1(C)CO)c1cccc2ccccc12	> 100 µM	> 100 µM	> 100 µM	> 100 µM	> 100 µM	> 100 µM	–	> 100 µM	> 100 µM	> 100 µM	–	–	–	–	–	–
N=c1n(CC(=O)NC23CC4CC(CC(C4)C2)C3)c2ccccc2n1CC(=O)NC12CC3CC(CC(C3)C1)C2	–	3.21 µM	3.13 µM	–	3.31 µM	6 µM	–	3.46 µM	–	–	–	–	–	–	–	–
CCOC(=O)CCC(NC(=O)c1ccc(Nc2nc3cc(C(F)(F)F)ccc3nc2C(=O)OCC)cc1)C(=O)OCC (stereo unspecified)	–	18.7 µM	39.9 µM	34.1 µM	> 100 µM	> 100 µM	36.2 µM	19.9 µM	–	–	–	–	–	–	–	–
